pIC50: −log10 of the molar value.
Tests used:
HeLa S3 cells = test: Growth Inhibition Test on HeLa S3 Cells; type: cell-based; conditions: Homo sapiens, 1 hour exposure, then 72 hours incubation, Neutral Red, 550 nm
Description: Growth Inhibition Test on HeLa S3 Cells
HeLa S3 cells were suspended in a MEM medium containing 10% fetal calf serum and 2 mM glutamine at a concentration of 3×10^4 cells/ml, and 0.1 ml of the cell suspension was put into each well of a 96-well microtiter plate.
After culturing at 37° C. overnight in a carbon dioxide gas incubator, 0.05 ml of a test sample appropriately diluted with the medium was added to each well. The cells were further cultured for one hour in the carbon dioxide gas incubator and the culture supernatant was removed. The residue was washed once with a phosphate buffer saline [PBS(-)] and 0.1 ml of a fresh medium was added to each well, and the cells were further incubated at 37° C. for 72 hours in the carbon dioxide gas incubator. After removal of the supernatant, 0.1 ml of a culture medium containing 0.02% Neutral Red was added to each well, and the cells were further incubated at 37° C. for one hour in the carbon dioxide gas incubator to stain the cells. After removal of the culture supernatant, each well was washed once with a physiological saline, and the dye was extracted with 0.001 N HCl/30% methanol. Absorbance of the extract at 550 nm was measured with a microplate reader. The cell growth inhibition percentage was calculated according to the following formula from the absorbance of the extract of the cells treated with the test compound in various concentrations and that of intact cells. [formula]
From the cell growth inhibition percentage thus obtained, the concentration of the test compound which inhibits cell growth by 50% (IC50) was determined.

Sarcoma 180 Solid Tumor = test: Anti-tumor Activity to Sarcoma 180 Solid Tumor; type: in vivo; conditions: Mus musculus, Sarcoma-180, iv, 168 h; dose of showing T/C=0.5 (tumor volume), male ddY mice, single i.v. 24 hours after s.c. implantation, measured at 7 days
Description: Anti-tumor Activity to Sarcoma 180 Solid Tumor
5×10^6 Sarcoma 180 cells were abdominally implanted into a ddY mouse and the cells were collected from the ascites of the mouse 7 days after the implantation. The cells were washed once with a sterilized physiological saline solution and then suspended in a sterilized physiological saline solution to prepare a cell suspension of 5×10^7 cells/ml. 0.1 ml of the cell suspension was subcutaneously implated into the right axillary space of each of male ddY mice weighing 20±2 g.
A test compound was dissolved in a physiological saline solution or a polyoxyethylene sorbitan monolaurate-containing physiological saline solution, and 0.1 to 0.2 ml of the solution was intravenously injected to five mice as one group 24 hours after the implatation of the tumor cells.
The anti-tumor activity of the test compound was determined by measuring the major diameter (a) and the minor diameter (b) of the tumor 7 days after the implantation of tumor cells, and the value of (a×b^2/ 2), which corresponds to the volume of the tumor, was calculated. The intended anti-tumor activity is represented by a ratio of T/C, in which C indicates the tumor volume of mice of the control group to which a physiological saline solution instead of the test compound was administered and T indicates the tumor volume of mice of the test group to which the test compound was administered. T/C at each dose given was plotted in a graph in which T/C is shown by an ordinary scale on the vertical axis and a dose is shown by a logarithmic scale on the horizontal axis. The relation between the dose and T/C was determined to be a straight line by the least-squares method. From the regression formula of the straight line thus obtained, the dose of showing T/C=0.5 is calculated to give ED50.

[1] = Acute Toxicity (single intravenous injection); conditions: mouse, in vivo, ddY mice, single i.v., 14 days observation, Behrens Kaerber's method
Description: A test compound was intravenously injected once to five ddY mice as one group. […] LD50 was calculated from the death rate of each group according to the Behrens Kaerber's method.

Row | Compound | pIC50 (HeLa S3 cells) | ED50 (Sarcoma 180 Solid Tumor) | LD50 at 336 h [1]
1 | CO[C@@]12[C@H](COC(N)=O)C3=C(C(=O)C(CSc4ccccn4)=C(N)C3=O)N1C[C@@H]1N[C@@H]12 [Compound 1, 6-Demethyl-6-[(2-pyridylthio)methyl]mitomycin C] | 5.74 | – | –
2 | CO[C@@]12[C@H](COC(N)=O)C3=C(C(=O)C(CSC4=NCCS4)=C(N)C3=O)N1C[C@@H]1N[C@@H]12 [Compound 11, 6-Demethyl-6-[(2-thiazolinylthio)methyl]mitomycin C] | 6.09 | 5.9 mg/kg | 9.4 mg/kg
3 | CO[C@@]12[C@H](COC(N)=O)C3=C(C(=O)C(CSc4nccs4)=C(N)C3=O)N1C[C@@H]1N[C@@H]12 [Compound 12, 6-Demethyl-6-[(2-thiazolylthio)methyl]mitomycin C] | 5.85 | – | –
4 | CO[C@@]12[C@H](COC(N)=O)C3=C(C(=O)C(CSc4ncccc4O)=C(N)C3=O)N1C[C@@H]1N[C@@H]12 [Compound 2, 6-Demethyl-6-[[(3-hydroxypyridin-2-yl)thio]methyl]mitomycin C] | 6.72 | 3.7 mg/kg | 15 mg/kg
5 | CO[C@@]12[C@H](COC(N)=O)C3=C(C(=O)C(CS[C@@H]4O[C@H](COC(C)=O)[C@@H](OC(C)=O)[C@H](OC(C)=O)[C@H]4OC(C)=O)=C(N)C3=O)N1C[C@@H]1N[C@@H]12 [Compound 16, 6-Demethyl-6-[[(2,3,4,6-tetra-O-acetyl-β-D-glucopyranosyl)thio]methyl]mitomycin C] | 5.96 | 24 mg/kg | 38 mg/kg
6 | CO[C@@]12[C@H](COC(N)=O)C3=C(C(=O)C(CSc4nc(C)cc(C)n4)=C(N)C3=O)N1C[C@@H]1N[C@@H]12 [Compound 4, 6-Demethyl-6-[[(4,6-dimethylpyrimidin-2-yl)thio]methyl]mitomycin C] | 5.96 | – | –
7 | CO[C@@]12[C@H](COC(N)=O)C3=C(C(=O)C(CSc4nc5ccccc5s4)=C(N)C3=O)N1C[C@@H]1N[C@@H]12 [Compound 13, 6-Demethyl-6-[(2-benzothiazolylthio)methyl]mitomyc-in C] | 6.15 | 36 mg/kg | > 50 mg/kg
8 | CO[C@@]12[C@H](COC(N)=O)C3=C(C(=O)C(CSc4ncccn4)=C(N)C3=O)N1C[C@@H]1N[C@@H]12 [Compound 3, 6-Demethyl-6-[(2-pyrimidinylthio)methyl]mitomycin C] | 6.02 | 8.9 mg/kg | 26 mg/kg

Reference: patent US5180825A, “Mitomycin derivatives” (Kyowa Hakko Kogyo Co., Ltd., priority 1990, dated 1993)
